Drawing on paper PMC10302398, “Mechanistic Insights into the Antibiofilm Mode of Action of Ellagic Acid” (Pharmaceutics, 2023), this text covers Kd and IC50 for two molecules.

For assay [1], the target named is T1, WrbA (NADH:quinone oxidoreductase WrbA; WrbAJW) (Escherichia coli, UniProt P0A8G6). Briefly: MST (Kd […]); also SPR (Kd […]) and NADH:DCPIP oxidoreductase inhibition (IC50 […]). The assay is classed as binding.
The target of assay [2] is T1, WrbA (NADH:quinone oxidoreductase WrbA; WrbAJW). The experiment in a line: NADH:DCPIP oxidoreductase activity assay of purified WrbAJW. The assay is classed as biochemical.

T1 sequence (P0A8G6 2-198): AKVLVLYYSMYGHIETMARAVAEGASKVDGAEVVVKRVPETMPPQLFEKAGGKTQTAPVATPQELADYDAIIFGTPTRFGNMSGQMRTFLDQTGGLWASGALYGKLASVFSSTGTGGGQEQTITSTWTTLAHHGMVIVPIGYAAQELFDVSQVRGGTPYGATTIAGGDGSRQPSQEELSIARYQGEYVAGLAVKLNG

One may read the Kd as the free concentration of one partner at which half of the binding sites on the other are occupied at equilibrium, for simple one-to-one binding. `O=c1oc2c(O)c(O)cc3c(=O)oc4c(O)c(O)cc1c4c23` [EA, ellagic acid] returned a Kd in assay [1] of 0.0015 ± 0.0004 mM.

The term IC50 denotes the concentration at which inhibition is half-maximal. The molecule `O=C(O)c1ccccc1O` [SA, salicylic acid] returned an IC50 in assay [2] of 7.85 ± 2.65 mM.
